Reference: patent EP0322748B1, “Antibiotic NK86-0279, process for production of the same and application of the same” (NIPPON KAYAKU KABUSHIKI KAISHA, priority 1987, dated 1989)
Converted amounts (≈) assume the structure as drawn.

Experiments:
[1] = system: human colonic cancer cells (SWlll6); test: growth-inhibitory effect on human colonic cancer cells, dye exclusion method; type: cell-based
Description: (§1) The growth-inhibitory effects of the compound of the present invention on mouse colonic cancer cells (Colon 26) and human colonic cancer cells (SWlll6) were examined. A 96-well plate was inoculated with mouse colonic cancer cells at a ratio of 1.5 x 10³ cells per well, while another 96-well plate was inoculated with human colonic cancer cells at a ratio of 3.0 x 10³ per well. These cells were incubated in an incubator at 37°C under 5 % CO₂ for 24 hours. Then the compound of the present invention was added thereto at various concentrations. Cells in each well were counted by the dye exclusion method 65 hours and 96 hours after the addition to thereby evaluate the growth-inhibitory effect of the test compound on the mouse colonic cancer cells and that on the human colonic cancer cells.

[2] = solubility; type: physicochemical
[3] = system: two-spotted spider mite acarids (a Kelthane-resistant species); test: insecticidal action, mortality rate of spider mites; type: in vivo; conditions: Tetranychus urticae, 48 h, Imagos of two-spotted spider mite, after 2 days
Description: The insecticidal action of the compound of the present invention was examined by the following method. • (1) An imago of two-spotted spider mite acarids (a Kelthane-resistant species) was used as a test vermin, and the mortality rate thereof was assayed according to an ordinary method (described on page 327 of "Noyaku Seibutsu Kenteiho" edited by Toyoji Hosotsuji). Specifically, a solution of the compound of the present invention in acetone (0.1 %) was added to 0.5 ml of an aqueous sucrose solution (1 %) to have a predetermined concentration. Ten two-spotted spider mite acarids were released in a vessel (200-ml beaker), and the vessel was covered with a paraffin film. The agent solution prepared above was put on the paraffin film, and another praffin film was put thereon. The beaker was allowed to stand in a thermostatic chamber (20 ± 1°C) for a predetermined period of time, and the life and death of the test vermin was investigated. • (2) A larva of mosquito culices (a sensitive species) was used as a test vermin, and the mortality rate thereof was assayed according to an ordinary method (described on page 109 of "Noyaku Jikkenho I, Sacchuzaihen" published by Soft Science, Inc.). Specifically, 10 ml of well water was placed in a vessel (15-ml Schale), and 5 larvae of mosquito culices (the third stage) were released in the vessel. A solution of the compound of the present invention in acetone (0.1 %) was added thereto so as to have a predetermined concentration. The vessel was allowed to stand in a thermostatic chamber (26 ± 1°C) for a predetermined period of time, and the life and death of the test vermin was investigated.

[4] = system: mouse breast cancer (Ehrlich B); test: anti-cancer action against grafted mouse breast cancer, tumor volume; type: in vivo
Text: The anti-cancer action of the compound of the present invention against mouse lung cancer (lewis lung carcinoma) and mouse breast cancer (Ehrlich B) was examined. 1 x 10⁶ mouse lung cancer cells or mouse breast cancer cells were grafted into a subcutaneous portion of the groin of an eight week-old male BDF₁ or ICR mouse, and the compound of the present invention was intraperitoneally administered to the mouse in various concentrations every day from two days after the graft once a day for 9 days. On the second day after completion of the administration, the minor axis and the major axis of the tumor were measured, and the volume of the tumor was determined by using the following equation: (minor axis)² x […]/2 [formula] . Then, the percentage inhibition of proliferation of each tumor with respect to the compound of the present invention was determined from the ratio of the volume of the tumor on the groups of administration of the compound of the present invention relative to that on the control group.

[5] = system: mouse colonic cancer cells (Colon 26); test: growth-inhibitory effect on mouse colonic cancer cells, dye exclusion method; type: cell-based
Description: as §1

[6] = system: bovine adrenal capillary endothelial cells; test: growth-inhibitory effect on endothelial cells, Coulter counter; type: cell-based; conditions: Bos taurus, Endothelial cell, 72 h, three days after the addition
Description: The growth-inhibitory effect of the compound of the present invention on endothelial cells was examined. A 96-well plate was inoculated with bovine adrenal capillary endothelial cells at a ratio of 1 x 10⁴ cells per well. One day after the inoculation, the compound of the present invention was added thereto at various concentrations. Cells in each well were counted with a Coulter counter three days after the addition to thereby evaluate the growth-inhibitory effect of the test compound on the capillary endothelial cells. […] Thus the IC₅₀ of the compound of the present invention on the endothelial cells was 0.0003 µg/ml, showing a strong growth-inhibitory effect.

[7] = system: Rhizopus hangchao; test: antifungal spectrum (minimum inhibitory concentration on agar); type: cell-based; conditions: Czapek Dox solution agar
Text: (§2) The antifungal spectrum of the compound of the present invention was examined.

[8] = system: Aspergillus oryzae; test: as above; type: cell-based; conditions: Czapek Dox solution agar
Text: as §2

[9] = system: Glomerella cingulata; test: as above; type: cell-based; conditions: Colletotrichum gloeosporioides; Czapek Dox solution agar
Text: as §2

[10] = system: cancer of the mouse colon (colon 26); test: anti-cancer action against grafted mouse colon cancer, prolongation of life; type: in vivo, BALB/c mouse
Text: The anti-cancer action of the compound of the present invention against the cancer of the mouse colon (colon 26) was examined. A cancer debris of mouse colon having an area of 2 mm³ was grafted into a subcutaneous portion of the left body side of a 6 week-old male BALB/c mouse, and the compound of the present invention was intraperitoneally administered to the mouse in various concentrations every day from the next day of the graft once a day for 9 days. The general conditions of the mouse were observed every day after the initiation of the administration. The percentage prolongation of life (T/C) of the mouse with respect to the compound of the present invention was determined from the ratio of the average survival time on the groups of administration of the compound of the present invention relative to that on the control group.

[11] = 0.063 mg/kg intraperitoneally once a day for 9 days
[12] = 0.125 mg/kg intraperitoneally once a day for 9 days
[13] = 0.500 mg/kg intraperitoneally once a day for 9 days

CCC1C=CC=CCC(C)C(O)C(C)(O)C(=O)C(C)C(O)C(C)C(=O)C(C)C(O)C(C)C=CC(=O)OC2C(C)C(CC1)OC1(OC(CC(C)O)C(C)CC1=O)C2CC (stereo not drawn) [NK86-0279]
inhibition at 0.0061 µg/mL ([1]; Homo sapiens, SW 1116, SWlll6, 0.0061 µg/ml, read-out: Growth-inhibitory ratio): 33.3% | inhibition at 0.024 µg/mL ([1]; Homo sapiens, SW 1116, SWlll6, 0.024 µg/ml, read-out: Growth-inhibitory ratio): 51.7% | inhibition at 0.098 µg/mL ([1]; Homo sapiens, SW 1116, SWlll6, 0.098 µg/ml, read-out: Growth-inhibitory ratio): 54.6% | inhibition at 0.39 µg/mL ([1]; Homo sapiens, SW 1116, SWlll6, 0.39 µg/ml, read-out: Growth-inhibitory ratio): 53.5% | inhibition at 1.56 µg/mL ([1]; Homo sapiens, SW 1116, SWlll6, 1.56 µg/ml, read-out: Growth-inhibitory ratio): 52.2% | inhibition at 6.25 µg/mL ([1]; Homo sapiens, SW 1116, SWlll6, 6.25 µg/ml, read-out: Growth-inhibitory ratio): 80.8% | inhibition at 25 µg/mL ([1]; Homo sapiens, SW 1116, SWlll6, 25 µg/ml, read-out: Growth-inhibitory ratio): 91.9% | inhibition at 100 µg/mL ([1]; Homo sapiens, SW 1116, SWlll6, 100 µg/ml, read-out: Growth-inhibitory ratio): 90.7% | IC50 ([1]; human colonic cancer cells (SWlll6), read-out: IC₅₀): 0.021 µg/mL (≈ 0.0256 µM) | solubility ([2]; in hexane): hardly soluble | solubility ([2]; in methanol, acetone, ethyl acetate and dimethyl sulfoxide): soluble | solubility ([2]; in organic solvents such as methanol, acetone, ethyl acetate and ethanol): soluble | solubility ([2]; in water): hardly soluble | mortality at 1 ppm ([3]; 1 ppm): 100% | mortality at 10 ppm ([3]; 10 ppm): 100% | mortality at 100 ppm ([3]; 100 ppm): 100% | Growth-inhibitory ratio (tumor volume) ([4]; 0.032 mg/kg intraperitoneally once a day for 9 days): 22.5% | Growth-inhibitory ratio (tumor volume) [4, 11]: -0.4% | Growth-inhibitory ratio (tumor volume) [4, 12]: 44.3% | Growth-inhibitory ratio (tumor volume) ([4]; 0.250 mg/kg intraperitoneally once a day for 9 days, 0.25 mg/kg): 67% | Growth-inhibitory ratio (tumor volume) [4, 13]: 61.7% | inhibition at 0.0061 µg/mL ([5]; Mus musculus, Colon 26, 0.0061 µg/ml, read-out: Growth-inhibitory ratio): 84.6% | inhibition at 0.024 µg/mL ([5]; Mus musculus, Colon 26, 0.024 µg/ml, read-out: Growth-inhibitory ratio): 87.5% | inhibition at 0.098 µg/mL ([5]; Mus musculus, Colon 26, 0.098 µg/ml, read-out: Growth-inhibitory ratio): 86.1% | inhibition at 0.39 µg/mL ([5]; Mus musculus, Colon 26, 0.39 µg/ml, read-out: Growth-inhibitory ratio): 87.6% | inhibition at 1.56 µg/mL ([5]; Mus musculus, Colon 26, 1.56 µg/ml, read-out: Growth-inhibitory ratio): 94.2% | inhibition at 6.25 µg/mL ([5]; Mus musculus, Colon 26, 6.25 µg/ml, read-out: Growth-inhibitory ratio): 105% | inhibition at 25 µg/mL ([5]; Mus musculus, Colon 26, 25 µg/ml, read-out: Growth-inhibitory ratio): 108% | inhibition at 100 µg/mL ([5]; Mus musculus, Colon 26, 100 µg/ml, read-out: Growth-inhibitory ratio): 104% | IC50 ([5]; mouse colonic cancer cells (Colon 26), read-out: IC₅₀): < 0.0061 µg/mL | inhibition at 0.000128 µg/mL ([6]; 0.000128 µg/ml, read-out: Groth-inhibitory ratio): 35.4% | inhibition at 0.00064 µg/mL ([6]; 0.00064 µg/ml, read-out: Groth-inhibitory ratio): 63.2% | inhibition at 0.0032 µg/mL ([6]; 0.0032 µg/ml, read-out: Groth-inhibitory ratio): 78.4% | inhibition at 0.016 µg/mL ([6]; 0.016 µg/ml, read-out: Groth-inhibitory ratio): 89.7% | IC50 ([6]; endothelial cells, read-out: IC₅₀): 0.0003 µg/mL (≈ 0.000366 µM) | MIC [7]: 6.25 µg/mL (≈ 7.63 µM) | MIC [8]: 3.13 µg/mL (≈ 3.82 µM) | MIC [9]: 6.25 µg/mL (≈ 7.63 µM) | T/C (percentage prolongation of life) [10, 11]: 136% | T/C (percentage prolongation of life) [10, 12]: 130% | T/C (percentage prolongation of life) ([10]; 0.250 mg/kg intraperitoneally once a day for 9 days): 153% | T/C (percentage prolongation of life) [10, 13]: 143%
